Measurements taken from patent publication US9988347B2, “Herbicidally active arylcarboxylic acid amides” (BAYER CROPSCIENCE AKTIENGESELLSCHAFT, priority 2014, dated 2018).

What was measured:
Assay type in all cases: in vivo
[1] = system: MATIN (Matricaria inodora); experiment: Post-emergence herbicidal action against harmful plants; settings: dosage 80 g/ha
Description: (§1) 2. Post-Emergence Herbicidal Action Against Harmful Plants
(§2) Seeds of monocotyledonous and dicotyledonous weed and crop plants are laid out in sandy loam in wood-fiber pots, covered with soil and cultivated in a greenhouse under good growth conditions. 2 to 3 weeks after sowing, the test plants are treated at the one-leaf stage. The compounds of the invention, formulated in the form of wettable powders (WP) or as emulsion concentrates (EC), are then sprayed onto the green parts of the plants in the form of an aqueous suspension or emulsion at a water application rate equating to 600 to 800 I/ha, with addition of 0.2% wetting agent. After the test plants have been left to stand in the greenhouse under optimal growth conditions for about 3 weeks, the action of the preparations is assessed visually in comparison to untreated controls (herbicidal action in percent (%): 100% activity=the plants have died, 0% activity=like control plants).

STEME (Stellaria media) = experiment: as above; settings: dosage 80 g/ha, assessed visually after about 3 weeks (Table K)
Description: as §1, §2

VERPE (Veronica persica) = experiment: Pre-emergence herbicidal action against harmful plants; settings: dosage 320 g/ha, scored visually after 3 weeks (Table E)
Excerpt: (§3) 1. Pre-Emergence Herbicidal Action Against Harmful Plants
(§4) Seeds of monocotyledonous and dicotyledonous weed plants and crop plants are laid out in wood-fiber pots in sandy loam and covered with soil. The compounds of the invention and, for comparative purposes, the compounds known from the prior art, formulated in the form of wettable powders (WP) or as emulsion concentrates (EC), are then applied to the surface of the covering soil as aqueous suspension or emulsion at a water application rate equating to 600 to 800 I/ha with addition of 0.2% of wetting agent. After the treatment, the pots are placed in a greenhouse and kept under good growth conditions for the trial plants. The damage to the test plants is scored visually after a test period of 3 weeks by comparison with untreated controls (herbicidal activity in percent (%): 100% activity=the plants have died, 0% activity=like control plants).

[2] = system: AMARE (Amaranthus retroflexus); experiment: as above; settings: 504 h, dosage 320 g/ha
Excerpt: as §3, §4

[3] = system: CYPES (Cyperus serotinus); experiment: as above; settings: dosage 320 g/ha
Excerpt: as §3, §4

[4] = system: POLCO (Polygonum convolvulus); experiment: as above; settings: dosage 320 g/ha
Excerpt: as §3, §4

[5] = system: MATIN (Matricaria inodora); experiment: as above; settings: dosage 320 g/ha, scored visually after 3 weeks (Table F)
Excerpt: as §3, §4

[6] = system: ALOMY (Alopecurus myosuroides); experiment: as above; settings: dosage 320 g/ha, scored visually after 3 weeks (Table C)
Excerpt: as §3, §4

AVEFA (Avena fatua) = experiment: as above; settings: dosage 320 g/ha, scored visually after 3 weeks vs untreated controls (100% = plants have died, 0% = like control plants)
Excerpt: as §3, §4

[7] = system: LOLMU (Lolium multiflorum); experiment: as above; settings: dosage 320 g/ha
Excerpt: as §3, §4

[8] = system: POLCO (Polygonum convolvulus); experiment: Post-emergence herbicidal action against harmful plants; settings: dosage 80 g/ha, assessed visually after about 3 weeks (Table L)
Description: as §1, §2

[9] = system: PHBPU (Pharbitis purpureum); experiment: Pre-emergence herbicidal action against harmful plants; settings: dosage 320 g/ha, scored visually after 3 weeks (Table I)
Excerpt: as §3, §4

[10] = assessed visually after about 3 weeks (Table K)
[11] = scored visually after 3 weeks (Table E)
[12] = scored visually after 3 weeks vs untreated controls (100% = plants have died, 0% = like control plants)
[13] = scored visually after 3 weeks (Table F)
[14] = scored visually after 3 weeks (Table B)
[15] = scored visually after 3 weeks (Table C)
[16] = assessed visually after about 3 weeks (Table L)
[17] = scored visually after 3 weeks (Table I)

Q: Which “Activity against MATIN” value [1, 10] does the source give for CSc1c(Br)ccc(C(=O)Nc2nnc(C)o2)c1C here?
A: 40%

Q: What about the “Activity against STEME” value (STEME (Stellaria media)) of the same molecule?
A: 60%

Q: For CSc1c(C=O)ccc(C(=O)Nc2ncnn2C)c1C, which “Activity against VERPE” value (VERPE (Veronica persica)) is on record?
A: 0%

Q: What about the pest or weed control at 320 g/ha [2, 11] of the same molecule?
A: 30%

Q: For CSc1c(C2CC2)ccc(C(=O)Nc2nnnn2C)c1C [drawing 18], which “Activity against CYPES” value [3, 12] is on record?
A: 90%

Q: And the “Activity against POLCO” value [4, 12]?
A: 90%

Q: With CSc1cccc(C(=O)Nc2nnnn2C)c1C [drawing 19, reference compound] as the molecule, how does the “Activity against CYPES” value [3, 12] read?
A: 30%

Q: What about the “Activity against POLCO” value [4, 12] of the same molecule?
A: 0%

Q: Which results are given for COSc1c(Cl)ccc(C(=O)Nc2ncnn2C)c1C?
A: Activity against MATIN [5]: 30%; pest or weed control at 320 g/ha [2, 13]: 70%

Q: Which results are given for CSc1c(C=O)ccc(C(=O)Nc2nnnn2C)c1C [drawing 25]?
A: Activity against CYPES [3, 14]: 0%; Activity against POLCO [4, 14]: 0%

Q: With CSc1c(Br)ccc(C(=O)Nc2nnnn2C)c1C [reference compound] as the molecule, how does the “Activity against CYPES” value [3, 12] read?
A: 0%

Q: And the “Activity against POLCO” value [4, 12]?
A: 70%

Q: With CSc1c(C2OCCO2)ccc(C(=O)Nc2nnnn2C)c1C [drawing 28] as the molecule, how does the pest or weed control at 320 g/ha [2, 15] read?
A: 0%

Q: And the “Activity against ALOMY” value [6]?
A: 0%

Q: Which “Activity against AVEFA” value (AVEFA (Avena fatua)) does the source give for CCn1nnnc1NC(=O)c1ccc(C)c(SC)c1C [reference compound] here?
A: 60%

Q: And the “Activity against LOLMU” value [7, 12]?
A: 30%

Q: How did the “Activity against VERPE” value (VERPE (Veronica persica)) turn out when CSc1c(I)ccc(C(=O)Nc2ncnn2C)c1C was run?
A: 0%

Q: And the pest or weed control at 320 g/ha [2, 11]?
A: 60%

Q: What does the source list for CSc1c(C2CC2)ccc(C(=O)Nc2nnc(C)o2)c1C?
A: Activity against MATIN [1, 16]: 80%; Activity against POLCO [8]: 60%

Q: How did the “Activity against MATIN” value [5] turn out when COSc1c(C2CC2)ccc(C(=O)Nc2ncnn2C)c1C was run?
A: 80%

Q: And the pest or weed control at 320 g/ha [2, 13]?
A: 90%

Q: For CCn1nnnc1NC(=O)c1ccc(C2CC2)c(SOC)c1C, which “Activity against PHBPU” value [9] is on record?
A: 100%

Q: What about the “Activity against LOLMU” value [7, 17] of the same molecule?
A: 100%

Q: With CSc1c(I)ccc(C(=O)Nc2nnnn2C)c1C as the molecule, how does the “Activity against CYPES” value [3, 14] read?
A: 0%

Q: And the “Activity against POLCO” value [4, 14]?
A: 20%

Q: With CSc1c(C#N)ccc(C(=O)Nc2ncnn2C)c1C as the molecule, how does the “Activity against VERPE” value (VERPE (Veronica persica)) read?
A: 70%

Q: What about the pest or weed control at 320 g/ha [2, 11] of the same molecule?
A: 80%

Q: How did the “Activity against CYPES” value [3, 14] turn out when CSc1c(C2CC2)ccc(C(=O)Nc2nnnn2C)c1C [drawing 21] was run?
A: 90%

Q: And the “Activity against POLCO” value [4, 14]?
A: 90%

Q: With CSc1c(C2CC2)ccc(C(=O)Nc2ncc(C)o2)c1C as the molecule, how does the “Activity against MATIN” value [1, 10] read?
A: 80%

Q: And the “Activity against STEME” value (STEME (Stellaria media))?
A: 90%

Q: With COSc1c(C2CC2)ccc(C(=O)Nc2nnnn2C)c1C as the molecule, how does the pest or weed control at 320 g/ha [2, 15] read?
A: 100%

Q: What about the “Activity against ALOMY” value [6] of the same molecule?
A: 90%

Q: How did the “Activity against MATIN” value [1, 16] turn out when CSc1c(I)ccc(C(=O)Nc2nnc(C)o2)c1C was run?
A: 60%

Q: And the “Activity against POLCO” value [8]?
A: 20%

Q: Which results are given for CSc1cccc(C(=O)Nc2nnnn2C)c1C [drawing 27]?
A: pest or weed control at 320 g/ha [2, 15]: 20%; Activity against ALOMY [6]: 20%

Q: How did the “Activity against CYPES” value [3, 14] turn out when CSc1c(C2OCCO2)ccc(C(=O)Nc2nnnn2C)c1C [drawing 24] was run?
A: 0%

Q: And the “Activity against POLCO” value [4, 14]?
A: 30%

Q: Which “Activity against MATIN” value [1, 16] does the source give for CSc1c(C(F)(F)F)ccc(C(=O)Nc2nnc(C)o2)c1C here?
A: 60%

Q: What about the “Activity against POLCO” value [8] of the same molecule?
A: 0%

Q: For COSc1c(C=O)ccc(C(=O)Nc2ncnn2C)c1C, which “Activity against MATIN” value [5] is on record?
A: 0%

Q: What about the pest or weed control at 320 g/ha [2, 13] of the same molecule?
A: 40%

Q: What does the source list for CSc1c(C=O)ccc(C(=O)Nc2nnnn2C)c1C [drawing 29]?
A: pest or weed control at 320 g/ha [2, 15]: 0%; Activity against ALOMY [6]: 0%

Q: CCn1nnnc1NC(=O)c1ccc(C2CC2)c(SC)c1C was tested. Which “Activity against AVEFA” value (AVEFA (Avena fatua)) did it give?
A: 100%

Q: And the “Activity against LOLMU” value [7, 12]?
A: 90%

Q: CCn1nnnc1NC(=O)c1ccc(C)c(SOC)c1C was tested. Which “Activity against PHBPU” value [9] did it give?
A: 60%

Q: And the “Activity against LOLMU” value [7, 17]?
A: 30%

Q: Which “Activity against MATIN” value [5] does the source give for COSc1c(C2OCCO2)ccc(C(=O)Nc2ncnn2C)c1C here?
A: 0%

Q: And the pest or weed control at 320 g/ha [2, 13]?
A: 20%

Q: CSc1c(C2CC2)ccc(C(=O)Nc2ncnn2C)c1C was tested. Which “Activity against VERPE” value (VERPE (Veronica persica)) did it give?
A: 90%

Q: What about the pest or weed control at 320 g/ha [2, 11] of the same molecule?
A: 100%

Q: What does the source list for COSc1c(C#N)ccc(C(=O)Nc2ncnn2C)c1C?
A: Activity against MATIN [5]: 0%; pest or weed control at 320 g/ha [2, 13]: 60%

Q: Which “Activity against VERPE” value (VERPE (Veronica persica)) does the source give for CSc1c(C2OCCO2)ccc(C(=O)Nc2ncnn2C)c1C here?
A: 0%

Q: What about the pest or weed control at 320 g/ha [2, 11] of the same molecule?
A: 0%

Q: Which results are given for CSc1c(N(C)C)ccc(C(=O)Nc2nnnn2C)c1C?
A: Activity against CYPES [3, 14]: 30%; Activity against POLCO [4, 14]: 0%

Q: How did the “Activity against MATIN” value [1, 10] turn out when CSc1c(Cl)ccc(C(=O)Nc2nnc(C)o2)c1C was run?
A: 60%

Q: What about the “Activity against STEME” value (STEME (Stellaria media)) of the same molecule?
A: 70%
